Assay [1] addresses T1, ENOX2 (Homo sapiens, UniProt Q16206).
T1 sequence (Q16206 1-610): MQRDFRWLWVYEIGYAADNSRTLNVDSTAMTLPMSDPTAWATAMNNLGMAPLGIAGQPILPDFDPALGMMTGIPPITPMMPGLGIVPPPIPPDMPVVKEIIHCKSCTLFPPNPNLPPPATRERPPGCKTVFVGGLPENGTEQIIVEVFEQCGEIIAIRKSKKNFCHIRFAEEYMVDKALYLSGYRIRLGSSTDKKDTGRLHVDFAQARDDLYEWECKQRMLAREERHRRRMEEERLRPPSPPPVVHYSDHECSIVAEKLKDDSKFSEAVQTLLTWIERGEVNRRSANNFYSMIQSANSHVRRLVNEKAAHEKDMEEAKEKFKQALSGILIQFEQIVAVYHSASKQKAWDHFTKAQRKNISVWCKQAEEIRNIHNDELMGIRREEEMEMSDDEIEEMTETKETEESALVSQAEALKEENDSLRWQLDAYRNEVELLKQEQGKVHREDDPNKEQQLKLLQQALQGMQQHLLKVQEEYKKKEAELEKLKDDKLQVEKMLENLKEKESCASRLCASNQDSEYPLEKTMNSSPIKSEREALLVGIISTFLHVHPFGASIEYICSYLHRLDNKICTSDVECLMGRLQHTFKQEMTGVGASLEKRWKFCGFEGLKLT
Briefly: 2-D gel electrophoresis/western blot, incubation with 15 μM NADH compared to no NADH. Particulars: 15 μM NADH in the assay compared to no NADH, FIG. 1. On the procedure: In order to maintain an active ENOX2 during western blotting with antibody, following blocking for 10 minutes with 1% milk and two rinses with TBST to remove excess milk, reduced pyridine nucleotides [NAD(P)H] were added at a concentration of 15 μM during incubation with the primary scFv antibody. NADH is preferred at a final concentration in the range of 10 μM. Incubation of the blot with antibody with or without shaking at any temperature between 4° C. and 40° C. for times of 1 to 16 hours depending on the concentration of NADH, the temperature and the antibody titer, preferably with incubation at 4° C. overnight (approximately 16 hours) with shaking.
In general terms: Immunoblotting shows a protein as a band on a membrane.

Assay [2] concerns the target T1, ENOX2. Briefly: ENOX2 activity versus NADH concentration, Lineweaver-Burke plot with and without antibody. In kind it is biochemical. Particulars: FIG. 2. The source says:
FIG. 2 is a graph that depicts the relationship of ENOX2 activity and concentration of NADH.

Assay [3] concerns heavy (ca. 52 kDa) and light (ca. 25 kDa) immunoglobulin chain proteins. Briefly: 2-D gel/western blot cross-reactivity with serum proteins. It is filed as binding, human. The note with it: on some blots. The source says: Separation in the first dimension was by isoelectric focusing over the pH range of 3 to 10 and separation in the second dimension was by 10 percent SDS-PAGE. Isoelectric points of the ENOX2 transcript variants were in the range of 3.2 to 6.3. The principal reactive proteins other than the ENOX2 forms were a 53 kDa isoelectric point pH 4.1, mostly phosphorylated alpha-fetuin (Labeled “R” in FIG. 8) which served as a convenient loading control and isoelectric point reference and a 79-85 kDa, isoelectric point pH 6.8 serotransferrin which served as a second point of reference for loading and as an isoelectric point reference. The two cross reactive reference proteins are present in a majority of sera and plasma of both cancer and non-cancer subjects.
For western blot analysis, 30 μL of sera was added to 120 μL of Rehydration Buffer (7M urea, 2 M thiourea, 2% (w/v) CHAPS [(3-[(3-cholamidopropyl)dimethylammonio]-1-propane-sulfonate), a nondenaturing zwitterionic detergent], 0.5% (w/v) ASB-14 (amidosulfobetaine-14, a zwitterionic detergent), 0.5% (v/v) ampholytes pH 3-10 (Bio-Rad), 0.5% (v/v) immobilized pH gradient (IPG) buffer pH 3-10 (Amersham-Pharmacia Biotech) and 65 mM dithiothreitol). The samples were quickly vortexed to mix sera with Rehydration Buffer. Four to six mg of protein were loaded for analysis. […] Quantitation utilized an algorithm developed for this purpose. […]

As to `NC(=O)C1=CN([C@@H]2O[C@H](COP(=O)(O)OP(=O)(O)OC[C@H]3O[C@@H](n4cnc5c(N)ncnc54)[C@H](O)[C@@H]3O)[C@@H](O)[C@H]2O)C=CC1` [NADH], the “increase in spot size and density of ENOX2” value at ENOX2 [1] was “two-fold increase”. Besides, the “NADH concentration at which maximum ENOX2 activity was achieved” value at ENOX2 [2] was “about 500 μM”.

B1: recombinant scFv: pan ENOX2 recombinant single chain variable region (scFv) antibody carrying an S tag, alkaline phosphatase linked (antibody, V domains shown)
VH: EVKLQESGTEVVKPGASVKLSCKASGYIFTSYDIDWVRQTPEQGLEWIGWIFPGEGSTEYNEKFKGRATLSVDKSSSTAYMELTRLTSEDSAVYFCARGDYYRRYFDLWGQGTTVTVSS
VL: ENVLTQSPAIMSASPGERVTMTCSASSSIRYIYWYQQKPGSSPRLLIYDTSNVAPGVPFRFSGSGSGTSYSLTINRMEAEDAATYYCQEWSGYPYTFGGGTKLELK
modifications: left off: things letters cannot carry; another chain or arm of the molecule; a dimerising Fc or GST; small tags and cut ends
notes: pan ENOX2 recombinant single chain variable region (scFv) antibody carrying an S tag, alkaline phosphatase linked
As to B1, the “cross-reactivity with immunoglobulin chain proteins” value in assay [3] is “weakly cross-reactive”.
